Measurements published in ChEMBL document CHEMBL1201862, “PubChem BioAssay data set” (2004).
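Method: 48-hour compound exposure of cells in 96-well plates, five concentrations, linear interpolation of endpoints. GI50 = concentration required for 50% inhibition of growth.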 The source made the active and inactive calls. No stated cut-off is given here; in the data, active = GI50 up to about 1.1 µM and inactive = higher.

What was measured:
Test in all cases: NCI-60 cell line screen, 48 h
[1] = tested on: M14
[2] = tested on: OVCAR-8
[3] = tested on: SF-268
[4] = tested on: SN12C
[5] = tested on: TK-10
[6] = tested on: K562
[7] = tested on: HOP-62
[8] = tested on: KM12
[9] = tested on: SR
[10] = tested on: CAKI-1
[11] = tested on: SK-MEL-2
[12] = tested on: IGROV-1
[13] = tested on: NCI-H226
[14] = tested on: UACC-62
[15] = tested on: SK-MEL-28
[16] = tested on: HL-60
[17] = tested on: NCI/ADR-RES
[18] = tested on: Hs-578T
[19] = tested on: MDA-MB-231
[20] = tested on: MDA-N

SMILES	GI50 [1]	GI50 [2]	GI50 [3]	GI50 [4]	GI50 [5]	GI50 [6]	GI50 [7]	GI50 [8]	GI50 [9]	GI50 [10]	GI50 [11]	GI50 [12]	GI50 [13]	GI50 [14]	GI50 [15]	GI50 [16]	GI50 [17]	GI50 [18]	GI50 [19]	GI50 [20]
Cc1cccc(C(C)C)c1NC(=O)C(=O)CC(=O)c1c(C)[n+]([O-])c2ccccc2[n+]1[O-]	27.8 µM (inactive)	31.9 µM (inactive)	30.1 µM (inactive)	30.6 µM (inactive)	> 100 µM (inactive)	> 100 µM (inactive)	> 100 µM (inactive)	38.6 µM (inactive)	28.2 µM (inactive)	25.6 µM (inactive)	29.3 µM (inactive)	30.2 µM (inactive)	> 100 µM (inactive)	21.5 µM (inactive)	36.1 µM (inactive)	41.2 µM (inactive)	–	–	–	–
COc1cc(/C=C2\NC(=O)C(Cc3cc(OC)c(OC)c(C)c3OC)N(C(C)=O)C2=O)c(OC)c(C)c1OC (configuration not stated)	> 100 µM (inactive)	72.8 µM (inactive)	> 100 µM (inactive)	> 100 µM (inactive)	> 100 µM (inactive)	61.2 µM (inactive)	> 100 µM (inactive)	94.6 µM (inactive)	> 100 µM (inactive)	54.8 µM (inactive)	96.4 µM (inactive)	> 100 µM (inactive)	59.2 µM (inactive)	> 100 µM (inactive)	> 100 µM (inactive)	23 µM (inactive)	–	–	–	–
CCOC(=O)CCC(C(=O)OCC)n1nnc2ccc(Nc3c(C)[n+]([O-])c4cc(Cl)ccc4[n+]3[O-])cc21 (configuration not stated)	19 µM (inactive)	21.5 µM (inactive)	18.8 µM (inactive)	24.5 µM (inactive)	71.8 µM (inactive)	22.6 µM (inactive)	31.9 µM (inactive)	22.2 µM (inactive)	30.3 µM (inactive)	34.4 µM (inactive)	21.7 µM (inactive)	27.7 µM (inactive)	26.5 µM (inactive)	17.4 µM (inactive)	–	29.9 µM (inactive)	31.8 µM (inactive)	32.4 µM (inactive)	–	–
CC1(C)C(=NN=C(N)N)C(C)(C)C1=NN=C(N)N	> 100 µM (inactive)	> 100 µM (inactive)	> 100 µM (inactive)	> 100 µM (inactive)	> 100 µM (inactive)	> 100 µM (inactive)	> 10 µM (inactive)	> 100 µM (inactive)	> 100 µM (inactive)	> 100 µM (inactive)	–	> 100 µM (inactive)	> 100 µM (inactive)	> 100 µM (inactive)	> 100 µM (inactive)	> 100 µM (inactive)	–	–	–	–
COC(=O)C1=C(O)c2cc(OC)c(OC)cc2C(c2ccc(OC)c(OC)c2)C1 (configuration not stated)	> 100 µM (inactive)	93.1 µM (inactive)	69.3 µM (inactive)	51.2 µM (inactive)	> 100 µM (inactive)	> 100 µM (inactive)	> 100 µM (inactive)	76.9 µM (inactive)	38.5 µM (inactive)	> 100 µM (inactive)	> 100 µM (inactive)	> 100 µM (inactive)	> 100 µM (inactive)	99.8 µM (inactive)	> 100 µM (inactive)	> 100 µM (inactive)	–	–	–	–
CC#C[P+](c1ccccc1)(c1ccccc1)c1ccccc1	1.88 µM (inactive)	0.962 µM (active)	2.09 µM (inactive)	1.12 µM (inactive)	4.09 µM (inactive)	1.95 µM (inactive)	2.83 µM (inactive)	2.88 µM (inactive)	2.88 µM (inactive)	3.24 µM (inactive)	1.56 µM (inactive)	6.95 µM (inactive)	3.13 µM (inactive)	3.72 µM (inactive)	12.2 µM (inactive)	3.71 µM (inactive)	–	–	–	–
Cc1ccc(-c2nnc(-c3nn(-c4ccccc4)c4nc5ccccc5nc34)o2)cc1	25.8 µM (inactive)	10.9 µM (inactive)	11.1 µM (inactive)	22.4 µM (inactive)	14 µM (inactive)	11.4 µM (inactive)	13.5 µM (inactive)	17.8 µM (inactive)	9.73 µM (inactive)	11.7 µM (inactive)	16 µM (inactive)	17.6 µM (inactive)	13.2 µM (inactive)	14.2 µM (inactive)	26.6 µM (inactive)	11 µM (inactive)	–	–	–	–
CCOP(=O)(Nc1ccccc1P(=O)(OCC)OCC)OCC	> 100 µM (inactive)	> 100 µM (inactive)	> 100 µM (inactive)	–	> 100 µM (inactive)	> 100 µM (inactive)	> 100 µM (inactive)	> 100 µM (inactive)	–	> 100 µM (inactive)	> 100 µM (inactive)	> 100 µM (inactive)	–	> 100 µM (inactive)	> 100 µM (inactive)	–	> 100 µM (inactive)	> 100 µM (inactive)	> 100 µM (inactive)	> 100 µM (inactive)
O=C(c1ccccc1)N1CCc2c([nH]c3ccccc23)C1	34 µM (inactive)	29.5 µM (inactive)	–	34 µM (inactive)	44.3 µM (inactive)	45.4 µM (inactive)	91.2 µM (inactive)	48.8 µM (inactive)	33.1 µM (inactive)	28.4 µM (inactive)	27.1 µM (inactive)	52.2 µM (inactive)	51.8 µM (inactive)	51.4 µM (inactive)	24.8 µM (inactive)	15.7 µM (inactive)	–	–	–	–
C=C(CN(C)C)C(=O)c1ccc(C(=O)C(=C)CN(C)C)cc1	> 100 µM (inactive)	> 100 µM (inactive)	> 100 µM (inactive)	> 100 µM (inactive)	> 100 µM (inactive)	> 100 µM (inactive)	–	> 100 µM (inactive)	> 100 µM (inactive)	> 100 µM (inactive)	> 100 µM (inactive)	> 100 µM (inactive)	> 100 µM (inactive)	> 100 µM (inactive)	> 100 µM (inactive)	> 100 µM (inactive)	–	–	–	–
CC(=O)Oc1cc2c(=O)oc3c(OC(C)=O)c(OC(C)=O)c(OC(C)=O)c4c(=O)oc(c1OC(C)=O)c2c34	36.6 µM (inactive)	56.6 µM (inactive)	48.4 µM (inactive)	29 µM (inactive)	> 100 µM (inactive)	53.5 µM (inactive)	> 100 µM (inactive)	> 100 µM (inactive)	24.8 µM (inactive)	> 100 µM (inactive)	28.8 µM (inactive)	> 100 µM (inactive)	43.9 µM (inactive)	33.2 µM (inactive)	32.7 µM (inactive)	56 µM (inactive)	–	–	–	–
O=C1N(c2ccccc2)C(=O)C2(SC=NN2Cc2ccccc2)N1c1ccccc1 (configuration not stated)	> 100 µM (inactive)	> 100 µM (inactive)	> 100 µM (inactive)	> 100 µM (inactive)	> 100 µM (inactive)	> 100 µM (inactive)	> 100 µM (inactive)	> 100 µM (inactive)	92.7 µM (inactive)	> 100 µM (inactive)	–	> 100 µM (inactive)	> 100 µM (inactive)	> 100 µM (inactive)	> 100 µM (inactive)	51.2 µM (inactive)	–	–	–	–
Cc1c(-c2ccc(O)cc2)n(CCCCCCNCCOC(=O)NCCCc2ccc(N(CCCl)CCCl)cc2)c2ccc(O)cc12	1.59 µM (inactive)	1.38 µM (inactive)	1.52 µM (inactive)	2.4 µM (inactive)	2.24 µM (inactive)	2.67 µM (inactive)	2.54 µM (inactive)	2.25 µM (inactive)	0.809 µM (active)	11.1 µM (inactive)	10.6 µM (inactive)	2.07 µM (inactive)	–	1.79 µM (inactive)	4.21 µM (inactive)	1.44 µM (inactive)	–	1.98 µM (inactive)	1.83 µM (inactive)	1.73 µM (inactive)
O=C(O)CSc1nnc(Cc2ccccc2)[nH]1	> 100 µM (inactive)	> 100 µM (inactive)	> 100 µM (inactive)	> 100 µM (inactive)	> 100 µM (inactive)	> 100 µM (inactive)	> 100 µM (inactive)	> 100 µM (inactive)	> 100 µM (inactive)	> 100 µM (inactive)	> 100 µM (inactive)	> 100 µM (inactive)	> 100 µM (inactive)	> 100 µM (inactive)	> 100 µM (inactive)	> 100 µM (inactive)	–	–	–	–
N#CC(c1ccc(Cl)cc1)c1cccc(C(C#N)c2ccc(Cl)cc2)n1 (configuration not stated)	34.8 µM (inactive)	55.1 µM (inactive)	27 µM (inactive)	59.3 µM (inactive)	7.29 µM (inactive)	6.35 µM (inactive)	93.8 µM (inactive)	17.6 µM (inactive)	9.31 µM (inactive)	16.9 µM (inactive)	13.7 µM (inactive)	–	37.4 µM (inactive)	14 µM (inactive)	17 µM (inactive)	12.1 µM (inactive)	–	–	–	–
Nc1ccc(C(=O)NN2C(=O)C(Cl)C2c2ccccc2Cl)cc1 (configuration not stated)	13.1 µM (inactive)	3.24 µM (inactive)	3.84 µM (inactive)	–	16.5 µM (inactive)	–	20.3 µM (inactive)	12.1 µM (inactive)	5.45 µM (inactive)	13.9 µM (inactive)	11.3 µM (inactive)	13.4 µM (inactive)	16.8 µM (inactive)	8.69 µM (inactive)	14.8 µM (inactive)	1.02 µM (active)	–	–	–	–
CNS(=O)(=O)NN(C)S(=O)(=O)c1ccc(OC)cc1	> 100 µM (inactive)	> 100 µM (inactive)	> 100 µM (inactive)	> 100 µM (inactive)	> 100 µM (inactive)	> 100 µM (inactive)	> 100 µM (inactive)	> 100 µM (inactive)	> 100 µM (inactive)	> 100 µM (inactive)	> 100 µM (inactive)	> 100 µM (inactive)	> 100 µM (inactive)	> 100 µM (inactive)	–	> 100 µM (inactive)	–	–	–	–
